From US11827724B2, “Polytetrafluoroethylene and method for producing same” (DAIKIN INDUSTRIES, LTD., priority 2009, dated 2023)
Like-named read-outs stand apart in the source and are kept apart here.

How the values were obtained:
[1] = Log POW, distribution coefficient between 1-octanol and water; settings: fluorinated surfactants used in Examples; octanol/water (1:1)
Text: The Log POW is distribution coefficient between 1-octanol and water. The Log POW is represented by Log P, wherein P is the ratio of a concentration of a fluorinated surfactant in an octanol phase to a concentration of a fluorinated surfactant in a water phase when an octanol/water (1:1) mixture containing a fluorinated surfactant is phase-separated.

[2] = PFOA, stated in description as comparison; cited from earlier work

Row | SMILES | Log POW [1] | Log POW [2]
1 | N.O=C(O)C(F)(OC(F)(F)C(F)(OC(F)(F)F)C(F)(F)F)C(F)(F)F (centres unmarked) [CF3—O—CF(CF3)CF2O—CF(CF3) COONH4] | 3.4 | –
2 | N.O=C(O)C(F)(F)C(F)(F)C(F)(F)C(F)(F)C(F)(F)C(F)(F)C(F)(F)F [PFOA, perfluoro octanoic acid ammonium] | – | 3.5
